From ChEMBL document CHEMBL1151082, “Structure-directed discovery of an inhibitor of the binding of HIV GP120 to the CD4 receptor” (Bioorg Med Chem Lett, 1993)

What was measured:
[1] = molecular target: T1, Envelope glycoprotein gp160 (Human immunodeficiency virus type 1 group M subtype B (isolate HXB2)(HIV-1), UniProt P04578); assay: Tested for inhibition of binding of soluble recombinant CD4-gp120 using ELISA assay; IA is Inactive
[2] = molecular target: T1, Envelope glycoprotein gp160; assay: Tested for inhibition of binding of soluble recombinant CD4-gp120 using ELISA assay
[3] = molecular target: T1, Envelope glycoprotein gp160; assay: Tested for rate constant of binding to inhibit soluble recombinant CD4-gp120; value ranges form 4-20 uM
[4] = molecular target: T1, Envelope glycoprotein gp160; assay: Tested in an HIV viral syncytium assay for inhibition of binding of recombinant CD4-gp120
[5] = molecular target: T1, Envelope glycoprotein gp160; assay: Tested for ability to block the CD4-gp120 interaction measured by binding of [125I]sCD4 to gp120

For `CCCCN(CCCC)CC1CC(c2ccccc2)(c2ccccc2)C(=O)O1` (stereo unspecified), the IC50 [1] was “Not Active”.
Work on `COC(=O)C(=O)N1CCC[C@@H]1C(=O)N[C@H](Cc1ccccc1)C(=O)OCc1ccccc1` yielded an IC50 [2] of 300 µM.
In the case of `CC(C)C[C@H](NC(=O)[C@H](Cc1ccccc1)N1NC(=O)[C@H]([C@@H](N)CO)CCC(=O)N[C@@H](CO)C1=O)C(=O)N[C@H](C(=O)NCc1ccccc1)[C@@H](C)O`, the Kd [3] is reported as 4 µM and the IC50 [2] is reported as greater than 100 µM.
`CCN(Cc1ccccc1)CC1CC(c2ccccc2)(c2ccccc2)C(=O)O1` (stereo unspecified) was tested, and the IC50 [1] was “Not Active”.
In the case of `CCNCC1CC(c2ccccc2)(c2ccccc2)C(=O)O1` (stereo unspecified), the IC50 [1] is reported as “Not Active”.
`CCN(CCN(C)C)CC1CC(c2ccccc2)(c2ccccc2)C(=O)O1` (stereo unspecified) was tested, and the IC50 [1] was “Not Active”.
In the case of `CN(C)CCNCC1CC(c2ccccc2)(c2ccccc2)C(=O)O1` (stereo unspecified), the IC50 [1] is reported as “Not Active”.
For `O=C1OC(CBr)CC1(c1ccccc1)c1ccccc1` (stereo unspecified), the IC50 [1] was “Not Active”.
For `CC1(C)CN(CC2CC(c3ccccc3)(c3ccccc3)C(=O)O2)C=N1` (stereo unspecified), the IC50 [1] was “Not Active”.
With `CCN(CC1CC(c2ccccc2)(c2ccccc2)C(=O)O1)C(=O)C(=O)OC` (stereo unspecified) the IC50 [1] was “Not Active”.
With `O=C1OC(C[N+]23CCC(CC2)CC3)CC1(c1ccccc1)c1ccccc1.[Br-]` (stereo unspecified) the IC50 [1] was “Not Active”.
`CC1=NCCN1CC1CC(c2ccccc2)(c2ccccc2)C(=O)O1` (stereo unspecified) was tested, and the IC50 [1] was “Not Active”.
`CCN(CCCl)CC1CC(c2ccccc2)(c2ccccc2)C(=O)O1` (stereo unspecified) gave an IC50 [4] of 100 µM, an IC50 [2] of 35 µM and an IC50 [5] of 30 µM.
